System: T1, L-glutaminase
T1 construct: gene glsA; native enzyme purified from culture supernatant (ammonium sulfate, Sephadex G-200); about 57 kDa by SDS-PAGE
Assay: Nesslerization of released ammonia; Lineweaver-Burk plot
Type: biochemical, Vreelandella aquamarina
Settings: Tris buffer, 37 °C; pH of kinetic assay not stated (general assay pH 7, optimum pH 8.0); assayed L-glutamine 0.01-0.8 M, far above the printed Km

## NC(=O)CC[C@H](N)C(=O)O [L-glutamine]
  Km: 12.2 µM
